Calls of active or inactive are those of the source. The rule behind the calls is not given here.
What was measured:
MCF7 = test: Antiproliferative activity against human MCF7 cells incubated for 48 hrs; format: functional, cell-based; conditions: MCF7, 48 h
NCI-H460 [1] = test: Inhibition of F0 subunit in F0F1 ATP synthase in human NCI-H460 cells assessed as inhibition of oxygen consumption rate at 1 uM by seahorse XFe96 analyser based assay; format: cell-based
NCI-H460 [2] = test: Antiproliferative activity against human NCI-H460 cells incubated for 48 hrs; format: functional, cell-based; conditions: NCI-H460, 48 h
U-87 MG = test: Antiproliferative activity against human U87MG cells incubated for 48 hrs; format: functional, cell-based, U-87MG ATCC
HCT-116 = test: Antiproliferative activity against human HCT116 cells incubated for 48 hrs; format: functional, cell-based; conditions: HCT-116, 48 h
NCI-H460 [3] = test: Induction of apoptosis in human NCI-H460 cells assessed as late apoptotic cells at 4 uM by Annexin V/PI staining based flow cytometric analysis (reference value: 1.17%); format: functional
NCI-H460 [4] = test: Anti-OXPHOS activity in human NCI-H460 cells assessed as inhibition of oxygen consumption rate at 8 uM by seahorse XFe96 analyser based assay
NCI-H460 [5] = test: Anti-OXPHOS activity in human NCI-H460 cells assessed as inhibition of oxygen consumption rate at 8 uM in presence of uncoupling agent, FCCP by seahorse XFe96 analyser based assay
[6] = Toxicity in nude mouse xenografted with human NCI-H460 cells assessed as body weight loss at 2.5 to 5 mg/kg, ip administered every other day for 21 days; format: organism-based; conditions: in vivo, 504 h
[7] = Toxicity in nude mouse xenografted with human NCI-H460 cells assessed as mortality at 5 mg/kg, ip administered every other day for 21 days; format: organism-based; conditions: in vivo, 504 h
NCI-H460 [8] = test: Antitumor activity against human NCI-H460 cells xenografted in nude mouse assessed as inhibition of tumor mass at 2.5 mg/kg, ip administered every other day for 21 days measured every 3 days; format: functional
NCI-H460 [9] = test: Induction of apoptosis in human NCI-H460 cells by Annexin V/PI staining based flow cytometric analysis; format: functional, cell-based
NCI-H460 [10] = test: Induction of apoptosis in human NCI-H460 cells assessed as necrotic cells at 4 uM by Annexin V/PI staining based flow cytometric analysis (reference value: 2.75%); format: functional
NCI-H460 [11] = test: Induction of apoptosis in human NCI-H460 cells assessed as viable cells at 2 uM by Annexin V/PI staining based flow cytometric analysis (reference value: 95.3%); format: functional; conditions: read-out: Activity
NCI-H460 [12] = test: Anti-OXPHOS activity in human NCI-H460 cells assessed as inhibition of mitochondrial oxidative phosphorylation by seahorse XFe96 analyser based assay; conditions: Mitochondria
NCI-H460 [13] = test: Induction of apoptosis in human NCI-H460 cells assessed as necrotic cells at 2 uM by Annexin V/PI staining based flow cytometric analysis (reference value: 2.75%); format: functional
NCI-H460 [14] = test: Induction of apoptosis in human NCI-H460 cells assessed as early apoptotic cells at 2 uM by Annexin V/PI staining based flow cytometric analysis (reference value: […]); format: functional
NCI-H460 [15] = test: Antitumor activity against human NCI-H460 cells xenografted in nude mouse assessed as decrease in tumor volume at 2.5 mg/kg, ip administered every other day for 21 days measured every 3 days; format: functional, organism-based
NCI-H460 [16] = test: Induction of apoptosis in human NCI-H460 cells assessed as early apoptotic cells at 4 uM by Annexin V/PI staining based flow cytometric analysis (reference value: […]); format: functional
NCI-H460 [17] = test: Antiproliferative activity against human NCI-H460 cells assessed as inhibition of cell growth at 32 uM incubated for 3 hrs; format: functional, cell-based
NCI-H460 [18] = test: Induction of apoptosis in human NCI-H460 cells assessed as late apoptotic cells at 2 uM by Annexin V/PI staining based flow cytometric analysis (reference value: 1.17%); format: functional
NCI-H460 [19] = test: Anti-OXPHOS activity in human NCI-H460 cells assessed as inhibition of oxygen consumption rate at 4 uM incubated for 1 hr by seahorse XFe96 analyser based assay relative to control
NCI-H460 [20] = test: Induction of apoptosis in human NCI-H460 cells assessed as viable cells at 4 uM by Annexin V/PI staining based flow cytometric analysis (reference value: 95.3%); format: functional; conditions: read-out: Activity

## CC[C@H]1CCC[C@H](OC(=O)C[n+]2cccc(C(N)=O)c2)[C@@H](C)C(=O)C2=C[C@@H]3[C@@H](C=C[C@@H]4C[C@@H](O[C@@H]5O[C@@H](C)[C@H](OC)[C@@H](OC)[C@H]5OC)C[C@@H]34)[C@@H]2CC(=O)O1
MCF7
  IC50: > 100000 nM

## CC[C@H]1CCC[C@H](OC(=O)CCC[n+]2ccccc2)[C@@H](C)C(=O)C2=C[C@@H]3[C@@H](C=C[C@@H]4C[C@@H](O[C@@H]5O[C@@H](C)[C@H](OC)[C@@H](OC)[C@H]5OC)C[C@@H]34)[C@@H]2CC(=O)O1
MCF7
  IC50: > 100000 nM

## CC[C@H]1/C=C/C=C/C[C@@H](C)[C@H](O)[C@@](C)(O)C(=O)[C@@H](C)[C@H](O)[C@@H](C)C(=O)[C@@H](C)[C@H](O)[C@@H](C)/C=C/C(=O)O[C@@H]2[C@H](C)[C@H](CC1)O[C@]1(CC[C@H](C)[C@H](C[C@@H](C)O)O1)[C@H]2C
NCI-H460 [1]
  inhibition: Active

## CC[C@H]1CCC[C@H](O[C@H]2CC[C@H](N(C)C)[C@@H](C)O2)[C@@H](C)C(=O)C2=C[C@@H]3[C@@H](C=C[C@@H]4C[C@@H](O[C@@H]5O[C@@H](C)[C@H](OC)[C@@H](OC)[C@H]5OC)C[C@@H]34)[C@@H]2CC(=O)O1 [SPINOSYN A]
MCF7
  IC50: 17900 nM
NCI-H460 [2]
  IC50: 67500 nM
U-87 MG
  IC50: 96500 nM
HCT-116
  IC50: 11100 nM

## CC[C@H]1CCC[C@H](O[C@H]2CC[C@H](N(C)CCCCCC[P+](c3ccccc3)(c3ccccc3)c3ccccc3)[C@@H](C)O2)[C@@H](C)C(=O)C2=C[C@@H]3[C@@H](C=C[C@@H]4C[C@@H](O[C@@H]5O[C@@H](C)[C@H](OC)[C@@H](OC)[C@H]5OC)C[C@@H]34)[C@@H]2CC(=O)O1.[Br-]
NCI-H460 [3]
  Activity: 6.99%
NCI-H460 [4]
  inhibition: Active
NCI-H460 [5]
  inhibition: inactive
[6]
  Activity: Non-Toxic
[7]
  Activity: Toxic
NCI-H460 [8]
  inhibition in vivo at 2.5 mg/kg: 14.6%
NCI-H460 [9]
  Activity: Dose-dependent effect
NCI-H460 [10]
  Activity: 1.69%
NCI-H460 [11]
  viability at 2 µM: 74.8%
MCF7
  IC50: 2000 nM
NCI-H460 [12]
  inhibition: Dose-dependent effect
NCI-H460 [2]
  IC50: 1600 nM
NCI-H460 [13]
  Activity: 1.38%
NCI-H460 [14]
  Activity: 19.9%
U-87 MG
  IC50: 1300 nM
NCI-H460 [15]
  inhibition: Active
NCI-H460 [16]
  Activity: 22%
NCI-H460 [17]
  inhibition: inactive
NCI-H460 [18]
  Activity: 3.91%
NCI-H460 [19]
  inhibition: 42%
HCT-116
  IC50: 300 nM
NCI-H460 [20]
  viability at 4 µM: 69.3%

## CC[C@H]1CCC[C@H](OC(=O)CCC[n+]2cccc(C(N)=O)c2)[C@@H](C)C(=O)C2=C[C@@H]3[C@@H](C=C[C@@H]4C[C@@H](O[C@@H]5O[C@@H](C)[C@H](OC)[C@@H](OC)[C@H]5OC)C[C@@H]34)[C@@H]2CC(=O)O1
MCF7
  IC50: > 100000 nM

## CC[C@H]1CCC[C@H](OC(=O)CCC[P+](c2ccccc2)(c2ccccc2)c2ccccc2)[C@@H](C)C(=O)C2=C[C@@H]3[C@@H](C=C[C@@H]4C[C@@H](O[C@@H]5O[C@@H](C)[C@H](OC)[C@@H](OC)[C@H]5OC)C[C@@H]34)[C@@H]2CC(=O)O1
MCF7
  IC50: 3100 nM
NCI-H460 [2]
  IC50: 1500 nM
U-87 MG
  IC50: 2700 nM
HCT-116
  IC50: 800 nM

Reference: ChEMBL document CHEMBL4627323, “Synthesis and anti-OXPHOS, antitumor activities of DLC modified spinosyn derivatives” (Bioorg Med Chem Lett, 2020)
